This note sets out measurements from ChEMBL document CHEMBL2216752, “Carnitine palmitoyltransferase (CPT) modulators: a medicinal chemistry perspective on 35 years of research” (J Med Chem, 2011).

Test [1] deals with T1, Carnitine O-palmitoyltransferase 2, mitochondrial (Rattus norvegicus, UniProt P18886).
T1 sequence (P18886 whole entry): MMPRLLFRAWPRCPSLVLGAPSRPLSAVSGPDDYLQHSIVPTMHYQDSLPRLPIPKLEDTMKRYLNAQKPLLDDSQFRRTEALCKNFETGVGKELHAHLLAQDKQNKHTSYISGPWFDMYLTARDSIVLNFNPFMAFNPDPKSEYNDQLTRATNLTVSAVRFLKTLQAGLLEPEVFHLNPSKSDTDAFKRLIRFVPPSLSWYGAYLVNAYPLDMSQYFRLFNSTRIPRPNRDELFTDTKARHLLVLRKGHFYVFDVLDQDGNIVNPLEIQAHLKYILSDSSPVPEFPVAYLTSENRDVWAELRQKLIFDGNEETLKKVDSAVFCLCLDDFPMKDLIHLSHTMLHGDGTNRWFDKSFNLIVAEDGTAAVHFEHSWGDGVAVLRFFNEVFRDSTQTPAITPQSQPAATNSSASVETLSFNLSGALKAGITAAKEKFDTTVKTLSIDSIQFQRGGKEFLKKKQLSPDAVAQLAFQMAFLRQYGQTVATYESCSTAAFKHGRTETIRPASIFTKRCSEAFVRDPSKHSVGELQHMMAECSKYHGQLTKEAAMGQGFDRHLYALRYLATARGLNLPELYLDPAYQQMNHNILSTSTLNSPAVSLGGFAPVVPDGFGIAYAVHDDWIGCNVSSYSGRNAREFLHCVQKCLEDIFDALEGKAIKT
Briefly: Inhibition of rat CPT2.

The subject of test [2] is Rattus norvegicus. Briefly: Reduction in plasma glucose level in fasted Wistar rat at 16 mg/kg, ip. It counts as functional. Details: scale not given: the % may be the effect or the level left. The following applies: route intraperitoneal.
For test [3], the target named is T2, Carnitine O-palmitoyltransferase 1, liver isoform (Homo sapiens, UniProt P50416).
T2 sequence (P50416 whole entry): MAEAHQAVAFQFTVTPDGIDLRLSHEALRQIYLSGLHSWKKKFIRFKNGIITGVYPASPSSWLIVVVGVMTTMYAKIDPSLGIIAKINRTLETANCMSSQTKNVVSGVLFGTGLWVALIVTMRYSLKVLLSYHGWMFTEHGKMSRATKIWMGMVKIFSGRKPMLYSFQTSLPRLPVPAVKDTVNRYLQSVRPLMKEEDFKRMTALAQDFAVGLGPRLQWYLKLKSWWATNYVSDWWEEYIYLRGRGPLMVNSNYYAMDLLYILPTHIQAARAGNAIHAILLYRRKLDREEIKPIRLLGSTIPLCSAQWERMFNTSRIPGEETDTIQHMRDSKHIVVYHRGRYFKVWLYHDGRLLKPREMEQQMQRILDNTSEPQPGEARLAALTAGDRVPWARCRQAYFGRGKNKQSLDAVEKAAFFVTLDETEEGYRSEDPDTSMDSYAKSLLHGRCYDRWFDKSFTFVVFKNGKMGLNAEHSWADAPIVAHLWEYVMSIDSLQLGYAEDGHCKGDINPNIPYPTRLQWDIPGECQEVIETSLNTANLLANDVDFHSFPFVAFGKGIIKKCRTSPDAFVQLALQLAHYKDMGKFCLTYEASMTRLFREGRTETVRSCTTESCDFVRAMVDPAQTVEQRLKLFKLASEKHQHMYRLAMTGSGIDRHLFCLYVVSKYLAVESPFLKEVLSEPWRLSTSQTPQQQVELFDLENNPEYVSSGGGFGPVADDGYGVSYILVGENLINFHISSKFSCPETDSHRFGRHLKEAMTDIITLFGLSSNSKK
Nature of the test: Inhibition of human CPT1A.

Test [4] has as its system Rattus norvegicus. Briefly: Increase in plasma VLDL level in fasted Wistar rat at 16 mg/kg, ip. It counts as functional. Conditions: route intraperitoneal.
Test [5] in a line: Inhibition of carnitine palmitoyltransferase in 24 hrs fasted rat liver mitochondria assessed as palmitoylcarnitine oxidation by radiometry.
The nature of test [6]: Inhibition of carnitine palmitoyltransferase in rat mitochondria.
The nature of test [7]: Inhibition of carnitine palmitoyltransferase in 20 hrs fasted Sprague-Dawley rat liver mitochondria assessed as palmitate oxidation by radiometry.
The target in test [8] is T1, Carnitine O-palmitoyltransferase 2, mitochondrial. Briefly: Inhibition of CPT2 in 24 hrs fasted rat liver mitochondria assessed as palmitoylcarnitine oxidation by radiometry.
Test [9] deals with Rattus norvegicus. Nature of the test: Increase in plasma TG level in fasted Wistar rat at 16 mg/kg, ip. The format is functional. The following applies: route intraperitoneal.
The nature of test [10]: Inhibition of carnitine palmitoyltransferase in 20 hrs fasted Sprague-Dawley rat liver mitochondria assessed as palmitoylcarnitine oxidation by radiometry.
Test [11] concerns the target T3, Carnitine O-palmitoyltransferase 1, muscle isoform (Homo sapiens, UniProt Q92523).
T3 sequence (Q92523 whole entry): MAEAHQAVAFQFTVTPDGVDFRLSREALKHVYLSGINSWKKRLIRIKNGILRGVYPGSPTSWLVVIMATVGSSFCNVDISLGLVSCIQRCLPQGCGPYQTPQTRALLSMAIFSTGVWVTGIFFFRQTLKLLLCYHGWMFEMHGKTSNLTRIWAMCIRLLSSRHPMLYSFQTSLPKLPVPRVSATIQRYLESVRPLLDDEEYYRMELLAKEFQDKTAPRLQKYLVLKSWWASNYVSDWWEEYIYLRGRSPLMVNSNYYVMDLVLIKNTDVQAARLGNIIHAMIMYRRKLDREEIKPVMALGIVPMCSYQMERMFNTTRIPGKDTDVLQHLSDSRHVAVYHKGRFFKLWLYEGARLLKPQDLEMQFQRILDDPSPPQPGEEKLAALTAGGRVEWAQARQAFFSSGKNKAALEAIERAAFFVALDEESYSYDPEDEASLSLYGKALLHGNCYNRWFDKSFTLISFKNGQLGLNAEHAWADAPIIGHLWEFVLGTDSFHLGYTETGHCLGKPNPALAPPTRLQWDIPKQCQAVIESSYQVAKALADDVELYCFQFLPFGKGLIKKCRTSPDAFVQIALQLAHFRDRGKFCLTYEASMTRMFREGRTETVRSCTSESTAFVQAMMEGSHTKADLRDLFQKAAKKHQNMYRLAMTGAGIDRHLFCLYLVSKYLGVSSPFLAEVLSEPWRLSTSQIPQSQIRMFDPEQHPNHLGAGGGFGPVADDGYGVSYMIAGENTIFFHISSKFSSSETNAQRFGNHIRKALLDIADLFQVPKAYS
Briefly: Inhibition of human CPT1B.

In test [12] the test system is Rattus norvegicus. Nature of the test: Increase in plasma LDL level in fasted Wistar rat at 16 mg/kg, ip. The format is functional. The following applies: route intraperitoneal.
Test [13] concerns Rattus norvegicus. Briefly: Reduction in palmitate oxidation in rat liver mitochondria at 18 mg/kg, ip administered as single dose measured 24 hrs post dose. The format is functional. On the set-up: scale not given: the % may be the effect or the level left. Conditions: route intraperitoneal.
The test system of test [14] is Rattus norvegicus. Briefly: Increase in plasma FFA level in fasted Wistar rat at 16 mg/kg, ip. The format is functional. Conditions: route intraperitoneal.
Test [15] deals with T4, Carnitine O-palmitoyltransferase 2, mitochondrial (Homo sapiens, UniProt P23786).
T4 sequence (P23786 whole entry): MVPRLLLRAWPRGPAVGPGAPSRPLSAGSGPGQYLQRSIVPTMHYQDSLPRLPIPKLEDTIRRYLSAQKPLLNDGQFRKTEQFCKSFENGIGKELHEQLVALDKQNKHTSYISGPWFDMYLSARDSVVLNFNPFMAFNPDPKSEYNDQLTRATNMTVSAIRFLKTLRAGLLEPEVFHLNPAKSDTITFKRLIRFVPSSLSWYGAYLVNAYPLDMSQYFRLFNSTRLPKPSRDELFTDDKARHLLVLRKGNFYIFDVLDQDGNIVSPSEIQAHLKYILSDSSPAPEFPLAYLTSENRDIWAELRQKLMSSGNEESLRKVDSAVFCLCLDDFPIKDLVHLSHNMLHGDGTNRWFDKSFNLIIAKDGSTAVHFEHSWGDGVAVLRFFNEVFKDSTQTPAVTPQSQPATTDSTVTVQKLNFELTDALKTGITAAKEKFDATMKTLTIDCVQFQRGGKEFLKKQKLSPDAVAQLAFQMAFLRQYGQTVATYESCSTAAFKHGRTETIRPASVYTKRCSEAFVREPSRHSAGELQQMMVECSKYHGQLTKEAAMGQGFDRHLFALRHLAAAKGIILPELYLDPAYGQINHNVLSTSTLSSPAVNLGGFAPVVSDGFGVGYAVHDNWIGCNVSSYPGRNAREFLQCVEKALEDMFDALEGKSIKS
Nature of the test: Inhibition of human CPT2.

Test [16] concerns Rattus norvegicus. Briefly: Reduction in glucose carbon recycling in Wistar rat at 60 mg/kg, iv over 5.5 hrs. On the set-up: scale not given: the % may be the effect or the level left. It counts as functional.
In test [17] the test system is Rattus norvegicus. Nature of the test: Reduction in whole body glucose utilization in Wistar rat at 60 mg/kg, iv over 5.5 hrs. Details: scale not given: the % may be the effect or the level left. The format is functional.
Test [18] concerns Sus scrofa. Briefly: Reduction in plasma glucose in 48 hrs fasted pig at 20 mg, iv measured 5 hrs post dose. The format is functional. Details: scale not given: the % may be the effect or the level left.
Test [19] relates to Rattus norvegicus. Nature of the test: Reduction in blood 3-OH-butyrate in Wistar rat at 60 mg/kg, iv over 5.5 hrs (reference value: 1 mM). It counts as functional.
For test [20], the system named is Rattus norvegicus. Nature of the test: Reduction in plasma glucose in Wistar rat at 60 mg/kg, iv over 5.5 hrs. On the set-up: scale not given: the % may be the effect or the level left. The format is functional.
The nature of test [21]: Inhibition of human FAO.
Test [22] in a line: Inhibition of rat FAO.
Test [23] deals with T1, Carnitine O-palmitoyltransferase 2, mitochondrial. Briefly: Inhibition of CPT2 in rat mitochondria using [3H]carnitine by radiometric method.
Test [24] has as its target T5, Carnitine O-palmitoyltransferase 1, liver isoform (Rattus norvegicus, UniProt P32198).
T5 sequence (P32198 whole entry): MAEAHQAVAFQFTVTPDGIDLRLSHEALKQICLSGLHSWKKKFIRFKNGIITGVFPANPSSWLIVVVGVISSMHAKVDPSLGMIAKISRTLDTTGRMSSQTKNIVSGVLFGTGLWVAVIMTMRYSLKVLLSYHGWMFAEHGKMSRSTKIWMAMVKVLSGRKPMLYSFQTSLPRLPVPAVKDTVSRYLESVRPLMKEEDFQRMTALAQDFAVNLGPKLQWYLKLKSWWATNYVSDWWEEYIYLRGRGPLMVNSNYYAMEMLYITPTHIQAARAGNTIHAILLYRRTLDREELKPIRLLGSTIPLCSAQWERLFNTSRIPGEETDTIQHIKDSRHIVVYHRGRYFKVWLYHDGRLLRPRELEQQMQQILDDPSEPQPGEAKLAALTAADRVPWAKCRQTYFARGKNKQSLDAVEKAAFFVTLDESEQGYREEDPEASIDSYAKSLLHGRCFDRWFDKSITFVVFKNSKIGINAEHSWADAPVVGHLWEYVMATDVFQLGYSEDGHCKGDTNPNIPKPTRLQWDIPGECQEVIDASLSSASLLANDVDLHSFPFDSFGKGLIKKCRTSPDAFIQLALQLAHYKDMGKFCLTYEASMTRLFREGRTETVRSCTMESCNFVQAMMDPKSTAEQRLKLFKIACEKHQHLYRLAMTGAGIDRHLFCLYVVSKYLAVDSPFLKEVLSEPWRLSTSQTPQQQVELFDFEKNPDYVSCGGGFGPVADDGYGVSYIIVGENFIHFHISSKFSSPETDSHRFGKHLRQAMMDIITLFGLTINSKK
Briefly: Inhibition of CPT1 in rat liver mitochondria using [3H]carnitine by radiometric method.

Test [25] deals with Carnitine O-palmitoyltransferase 1, muscle isoform (Rattus norvegicus) (UniProt Q63704). Nature of the test: Inhibition of CPT1 in rat cardiac mitochondria using [3H]carnitine by radiometric method.
Test [26] is described as follows: Inhibition of Phospholipase A2.

SMILES strings stand for the structures.

Carnitine O-palmitoyltransferase 1, muscle isoform (Rattus norvegicus), sequence (Q63704 whole entry, looked up, canonical isoform): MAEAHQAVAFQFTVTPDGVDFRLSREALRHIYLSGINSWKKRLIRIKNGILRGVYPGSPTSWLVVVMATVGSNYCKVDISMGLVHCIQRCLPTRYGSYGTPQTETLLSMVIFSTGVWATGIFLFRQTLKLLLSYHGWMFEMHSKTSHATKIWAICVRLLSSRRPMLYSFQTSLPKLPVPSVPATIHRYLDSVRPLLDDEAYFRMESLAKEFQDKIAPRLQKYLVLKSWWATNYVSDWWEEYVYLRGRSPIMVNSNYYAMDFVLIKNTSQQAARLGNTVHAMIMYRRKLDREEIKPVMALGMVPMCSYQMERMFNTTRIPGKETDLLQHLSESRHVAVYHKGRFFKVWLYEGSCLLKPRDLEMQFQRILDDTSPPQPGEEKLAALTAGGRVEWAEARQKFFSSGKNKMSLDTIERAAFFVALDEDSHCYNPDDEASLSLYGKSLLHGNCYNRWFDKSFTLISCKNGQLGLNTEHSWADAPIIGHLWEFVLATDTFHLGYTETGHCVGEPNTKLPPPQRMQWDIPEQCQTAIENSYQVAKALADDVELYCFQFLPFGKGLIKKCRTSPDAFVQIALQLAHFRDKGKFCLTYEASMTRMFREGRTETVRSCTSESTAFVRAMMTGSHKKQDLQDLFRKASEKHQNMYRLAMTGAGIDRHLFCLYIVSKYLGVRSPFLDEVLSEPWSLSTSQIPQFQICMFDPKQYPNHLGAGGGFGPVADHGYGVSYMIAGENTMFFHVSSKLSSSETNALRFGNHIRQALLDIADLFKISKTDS

The IC50 is the concentration needed to halve the response being measured. Turning to `C[N+](C)(C)C[C@H](N)CC(=O)[O-]`, the IC50 was 5.1 µM in test [1]; 76.4 µM in test [3]; 5.4 µM in test [5]; 3.2 µM in [6]; 3.2 µM in [7]; 0.8 µM in [8]. Moreover, the results for the IC50 in test [10], in test [11] and in test [15] were 12 µM, above 100 µM and 3.9 µM, respectively. The Activity in test [2] amounted to 16%; in [4], 1034%; in [9], 684%; in [12], 88%; in [13], 68%; in [14] it was 244%.
On to `O=C(O)C1(CCCCCCOc2ccc(Cl)cc2)CO1` (racemic), for which the Activity in test [16] amounted to 30%; in test [17] it was 14%; in test [18], 50%; in [19], 0.03 mM; in test [20], 25%.
Take `C1CCC(C(CC2CCCCN2)C2CCCCC2)CC1` (centres undefined) [PERHEXILINE]: the concentration for half-maximal inhibition (IC50) in [3] is above 100 µM; in test [21], 22.4 µM; in test [22], 21.4 µM; in [23], 79 µM; in test [11], above 100 µM; in test [24], 148 µM. In addition, the concentration for half-maximal inhibition (IC50) in test [25] worked out at 77 µM; in test [15] it was 72.8 µM.
The compound `COC(=O)C1(C(F)CCCCc2ccccc2)CO1` (centres undefined) showed a 50% inhibitory concentration (IC50) in test [26] of 2.6 µM.
